# Test results as given in patent US8158646B2, “Antifungal and antiparasitic indoloquinoline derivates” (Florida Agricultural and Mechanical University, priority 2006, dated 2012).
# Read-outs that look alike come from different tables or passages of the source.
# How the values were obtained:
# [1] = system: Plasmodium falciparum W2 Clone; experiment: Antimalarial testing, W2 clone; format: cell-based; details: for IC50: Plasmodium falciparum; for SI (W2): SI = IC50 (vero cells)/IC50 (Pf)
# Method: (§1) Compounds were evaluated in vitro against a panel of microorganisms, including Candida albicans ATCC 90028 (Ca), C. krusei ATCC 6258 (Ck), Cryptococcus neoformans ATCC 90113 (Cn), Staphylococcus aureus ATCC 29213 (Sa), methicillin-resistant S. aureus ATCC 43300 (MRSA), Pseudomonas aeruginosa ATCC 27853 (Pa), Aspergilllus fumigatus ATCC 90906 (Aj), and Mycobacterium intracellulare ATCC 23068 (Mi) as previously reported [Guoyi, M.; Khan, S.; Jacob, M. R; Tekwani, B. L.; Li, Z.; Pasco, D. S.; Walker, L. A.; Khan, 1. A.; Antimicrob Agents Chemother, 2004, 48, 4450-4452]. All organisms were obtained from the American Type Culture Collection (Manassas, Va.). Susceptibility testing was performed using a modified version of the NCCLS methods [a) National Committee for Clinical Laboratory Standards. 2000. Methods for dilution antimicrobial susceptibility tests for bacteria that grow aerobically. M7-A5. National Committee for Clinical Laboratory Standards, Wayne, Pa. b) National Committee for Clinical Laboratory Standards, 1997, Reference method for broth dilution antifungal susceptibility testing of yeasts. Approved standard M27-A. National Committee for Clinical Laboratory Standards, Wayne, Pa. c) National Committee for Clinical Laboratory Standards. 2000. Susceptibility testing of mycobacteria, nocardia, and other aerobic actinomycetes, 2nd ed. Tentative standard M24- T2. National Committee for Clinical Laboratory Standards, Wayne, Pa.] for all organisms except for M intracellulare, for which the modified Alamar blue procedure described by Franzblau et al [1998. J Clin Microbiol, 36, 362-366] was followed. Briefly, samples (dissolved in DMSO) were serially diluted by using 0.9% saline and transferred in duplicate to 96-well microplates. Microbial inocula were prepared after comparison of the absorbance (at 630 nm) of cell suspensions to the 0.5 McFarland standard and dilution of the suspensions in broth (Sabouraud dextrose and cation-adjusted Mueller-Hinton broth [Difco] for the fungi and bacteria, respectively, and 5% Alamar blue [BioSource international] in Middlebrook 7H9 broth with oleic acid-albumin-dextrose-catalase enrichment for M intracellulare) to afford recommended inoculum sizes. Microbial inocula were added to the samples to achieve a final volume of 200 μl and final sample concentrations starting with 100 μg/ml. Growth, solvent, and medium controls were included on each test plate. The plates were read at either 630 nm or excitation and emission wavelengths of 544 and 590 nm (for Mi) prior to and after incubation. Percent growth was calculated and plotted with the concentration tested to afford the concentration that inhibits 50% of growth (IC50). Antimalarial and cytotoxicity testing were conducted in a similar manner as previously reported [a) Muhammad, 1.; Bedir, E.; Khan, S. I.; Tekwani, B. L.; Khan, I. A.; Takamatsu, S.; Pelletier, 1.; Walker, L. A. J Nat Prod. 2004, 67, 772-7. b) Muhammad, 1.; Dunbar, D. C.; Khan, S. 1.; Tekwani, B. L.; Bedir, E.; Takamatsu, S.; Ferreira, D, Walker L A., J Nat Prod. 2003, 66, 962-7].
# [2] = system: Plasmodium falciparum D6 Clone; experiment: Antimalarial testing, D6 clone; format: cell-based; details: for IC50: Plasmodium falciparum; for SI (D6): SI = IC50 (vero cells)/IC50 (Pf)
# Method: (§2) All organisms were obtained from the American Type Culture Collection (Manassas, Va.). Susceptibility testing was performed using a modified version of the NCCLS methods [a) National Committee for Clinical Laboratory Standards. 2000. Methods for dilution antimicrobial susceptibility tests for bacteria that grow aerobically. M7-A5. […] Approved standard M27-A. National Committee for Clinical Laboratory Standards, Wayne, Pa. c) National Committee for Clinical Laboratory Standards. 2000. Susceptibility testing of mycobacteria, nocardia, and other aerobic actinomycetes, 2nd ed. Tentative standard M24- T2. […] Briefly, samples (dissolved in DMSO) were serially diluted by using 0.9% saline and transferred in duplicate to 96-well microplates. Microbial inocula were prepared after comparison of the absorbance (at 630 nm) of cell suspensions to the 0.5 McFarland standard and dilution of the suspensions in broth (Sabouraud dextrose and cation-adjusted Mueller-Hinton broth [Difco] for the fungi and bacteria, respectively, and 5% Alamar blue [BioSource international] in Middlebrook 7H9 broth with oleic acid-albumin-dextrose-catalase enrichment for M intracellulare) to afford recommended inoculum sizes. Microbial inocula were added to the samples to achieve a final volume of 200 μl and final sample concentrations starting with 100 μg/ml. Growth, solvent, and medium controls were included on each test plate. […] Antimalarial and cytotoxicity testing were conducted in a similar manner as previously reported [a) Muhammad, 1.; Bedir, E.; Khan, S. I.; Tekwani, B. L.; Khan, I. A.; Takamatsu, S.; Pelletier, 1.; Walker, L. A. J Nat Prod.
# Vero cells = experiment: Cytotoxicity to mammalian cells (Vero); format: cell-based
# Method: as §2
# [3] = system: Aspergillus fumigatus ATCC 90906; experiment: Antimicrobial susceptibility testing, Af; format: cell-based; details: for IC50: ATCC90906, read-out: IC50 Af
# Method: as §1, with “Antimalarial and cytotoxicity testing were conducted in a similar manner as previously reported [a) Muhammad, 1.; Bedir, E.; Khan, S. I.; Tekwani, B. L.; Khan, I. A.; Takamatsu, S.; Pelletier, 1.; Walker, L. A. J Nat Prod. 2004, 67, 772-7. b) Muhammad, 1.; Dunbar, D. C.; Khan, S. 1.; Tekwani, B. L.; Bedir, E.; Takamatsu, S.; Ferreira, D, Walker L A., J Nat Prod. 2003, 66, 962-7].” left out
# [4] = system: Cryptococcus neoformans ATCC 90113; experiment: Antifungal susceptibility testing (modified NCCLS), Cn; format: cell-based
# Method: as §1
# C. krusei ATCC 6258 = experiment: Antimicrobial susceptibility testing, Ck; format: cell-based, Candida krusei; details: for IC50: Pichia kudriavzevii
# Method: as §1, with “National Committee for Clinical Laboratory Standards, Wayne, Pa.] for all organisms except for M intracellulare, for which the modified Alamar blue procedure described by Franzblau et al [1998. J Clin Microbiol, 36, 362-366] was followed. Briefly, samples (dissolved in DMSO) were serially diluted by using 0.9% saline and transferred in duplicate to 96-well microplates.” left out, “Microbial inocula were added to the samples to achieve a final volume of 200 μl and final sample concentrations starting with 100 μg/ml. Growth, solvent, and medium controls were included on each test plate.” left out, “Percent growth was calculated and plotted with the concentration tested to afford the concentration that inhibits 50% of growth (IC50). Antimalarial and cytotoxicity testing were conducted in a similar manner as previously reported [a) Muhammad, 1.; Bedir, E.; Khan, S. I.; Tekwani, B. L.; Khan, I. A.; Takamatsu, S.; Pelletier, 1.; Walker, L. A. J Nat Prod. 2004, 67, 772-7. b) Muhammad, 1.; Dunbar, D. C.; Khan, S. 1.; Tekwani, B. L.; Bedir, E.; Takamatsu, S.; Ferreira, D, Walker L A., J Nat Prod. 2003, 66, 962-7].” left out
# [5] = system: Candida albicans ATCC 90028; experiment: Antifungal susceptibility testing (modified NCCLS), Ca; format: cell-based
# Method: as §1
# [6] = system: methicillin-resistant S. aureus ATCC 43300; experiment: Antimicrobial susceptibility testing, MRSA; format: cell-based, Staphylococcus aureus; details: read-out: IC50 MRSA
# Method: as §1, with “Antimalarial and cytotoxicity testing were conducted in a similar manner as previously reported [a) Muhammad, 1.; Bedir, E.; Khan, S. I.; Tekwani, B. L.; Khan, I. A.; Takamatsu, S.; Pelletier, 1.; Walker, L. A. J Nat Prod. 2004, 67, 772-7. b) Muhammad, 1.; Dunbar, D. C.; Khan, S. 1.; Tekwani, B. L.; Bedir, E.; Takamatsu, S.; Ferreira, D, Walker L A., J Nat Prod. 2003, 66, 962-7].” left out
# [7] = system: Mycobacterium intracellulare ATCC 23068; experiment: Modified Alamar blue procedure, Mi; format: cell-based; details: ATCC23068, read-out: IC50 Mi
# Method: as §1, with “Antimalarial and cytotoxicity testing were conducted in a similar manner as previously reported [a) Muhammad, 1.; Bedir, E.; Khan, S. I.; Tekwani, B. L.; Khan, I. A.; Takamatsu, S.; Pelletier, 1.; Walker, L. A. J Nat Prod. 2004, 67, 772-7. b) Muhammad, 1.; Dunbar, D. C.; Khan, S. 1.; Tekwani, B. L.; Bedir, E.; Takamatsu, S.; Ferreira, D, Walker L A., J Nat Prod. 2003, 66, 962-7].” left out
# [8] = W2 Clone, NA = Not active up to 20 μg/ml, read-out: Plasmodium falciparum IC50 Pf (W2)
# [9] = D6 Clone, read-out: Plasmodium falciparum IC50 Pf (D6)
# [10] = W2, read-out: Plasmodium falciparum IC50 Pf (W2)
# [11] = D6, read-out: Plasmodium falciparum IC50 Pf (D6)
# [12] = Vero cells, NC = No Cytotoxicity observed up to 5 μg/ml
"IC50 [1, 8] [µg/mL]","IC50 [2, 9] [µg/mL]",SMILES,Cytotoxicity (Vero) TC50 (Vero cells; African green monkey) [µg/mL],IC50 [3] [µg/mL],"IC50 [1, 10] [µg/mL]",SI (W2) ([1]; W2 Clone),"IC50 [2, 11] [µg/mL]",SI (D6) ([2]; D6 Clone),Cytotoxicity (Vero) TC50 (Vero cells; [12]) [µg/mL],IC50 [7] [µg/mL],other results
0.0031,0.0085,"C[C@@H]1CC[C@H]2[C@@H](C)C(=O)O[C@@H]3O[C@@]4(C)CC[C@@H]1[C@]32OO4 [Artemisinin, reference compound]",>23.8,–,–,–,–,–,–,–,–
–,–,"C[C@@H]1[C@H](O)[C@@H](C)/C=C/C=C/C=C/C=C/C=C/C=C/C=C/[C@H](O[C@@H]2O[C@H](C)[C@@H](O)[C@H](N)[C@@H]2O)C[C@@H]2O[C@](O)(C[C@@H](O)C[C@@H](O)[C@H](O)CC[C@@H](O)C[C@@H](O)CC(=O)O[C@H]1C)C[C@H](O)[C@H]2C(=O)O [Amphotericin B, reference compound]",–,–,–,–,–,–,–,–,IC50 Af [3]: 0.31 µg/mL; IC50 Cn ([4]; NA not defined in Table 1): 0.6 µg/mL; Cytotoxicity (Vero) TC50 (Vero cells): 6.5 µg/mL; IC50 Ck (C. krusei ATCC 6258; Candida krusei): 0.60 µg/mL; IC50 Ca ([5]; NA not defined in Table 1): 0.1 µg/mL
–,–,"Cn1c2c3ccccc3nc-2cc2ccccc21 [Compound 2b, cryptolepine, reference compound]",–,> 20,0.13,18.5,0.044,54,2.4,15,"IC50 ([6]; Staphylococcus aureus): 20 µg/mL; IC50 (C. krusei ATCC 6258; ATCC6258, read-out: IC50 Ck): 4.5 µg/mL"
0.14,0.26,C[n+]1c2ccccc2cc2c1c1ccccc1n2CCCCCn1c2ccccc2c2c1cc1ccccc1[n+]2C [Compound 12],>23.8,20,–,>170,–,>91.5,–,15,"IC50 ([6]; Methicillin-Resistant Staphylococcus aureus): 6 µg/mL; IC50 ([4]; ATCC90113, NA not defined in Table 1, read-out: IC50 Cn): 2 µg/mL; no cytotoxicity up to (concentration) (Vero cells; African green monkey): > 23.8 µg/mL; IC50 (C. krusei ATCC 6258; ATCC6258, Candida krusei, read-out: IC50 Ck): 15 µg/mL; IC50 ([5]; ATCC90028, NA not defined in Table 1, read-out: IC50 Ca): 2 µg/mL"
–,–,"CCN(CC)CCCC(C)Nc1ccnc2cc(Cl)ccc12 (stereo not drawn) [Chloroquine, reference compound]",–,–,0.075,–,0.017,–,>23.8,–,–
–,–,c1ccc2c(c1)cc1[nH]c3ccccc3c1[n+]2CCCCC[n+]1c2ccccc2cc2[nH]c3ccccc3c21 (hydrate or solvate) [Compound 10],–,–,–,–,–,–,–,–,melting point: 256 to 258 °C
